{"source": "patent US20170368089A1", "about": "“COMPOSITION FOR PREVENTING OR TREATING COLITIS” (UNIVERSITY-INDUSTRY COOPERATION GROUP OF KYUNG HEE …, priority 2012, published 2017)", "key": {"TNF-alpha [1]": {"system": "TNF-alpha", "assay": "TNF-alpha expression in colon tissue (ELISA), TNBS colitis, first experiment", "format": "in vivo, ICR male mice", "conditions": "Table 4 (group 1), TNBS-treated mice, 10 mg/kg orally, 3 days", "protocol": "(§1) Among the experimental groups, one group was set as a normal group, and for the experimental animals in other groups, colitis was induced with 2,4,6-trinitrobenzenesulfonic acid (TNBS). In detail, after lightly anesthetizing the experimental animals with ether, 0.1 ml of the solution prepared by mixing […] of 2,4,6-Trinitrobenzene sulfonic acid (NBS) solution with 50% ethanol was injected into the colon through the anus using a syringe having 1 ml volume and oval point, respectively; and then, the syringe was vertically picked up, and then, maintained for 30 seconds to induce the inflammation. Meanwhile, 0.1 ml of normal saline solution was orally administered to the normal group. Since then, from the next day, the sample dissolved in normal saline solution was orally administered in the volume that was decided in advance one time a day for 3 days. At the next day after completing the sample administration, the experimental animals were suffocated to death with carbon dioxide, the colon from appendix to the region just before the anus was removed from the colon region.\n250 μl of RIPA butter including protease inhibitor cocktail was added to 100 mg of the colon tissue of experimental animal, and then, the colon tissue was homogenized. Since then, the homogenized colon tissue was centrifuged under the conditions of 4° C. and 13000 rpm for 15 minutes to obtain supernatant. While the supernatant was stored at −80° C., the expression amounts of IL-1 beta, IL-6, and TNF-alpha were measured using a 96-well ELISA plate kits (Pierce Biotechology, Inc., Rockford, Ill., USA)."}, "IL-1 beta": {"system": "IL-1 beta", "assay": "IL-1 beta expression in colon tissue (ELISA), TNBS colitis, second experiment", "format": "in vivo, ICR male mice", "conditions": "Table 9, extract-based samples, TNBS-treated mice, 10 mg/kg orally, 3 days", "protocol": "as §1, with “At the next day after completing the sample administration, the experimental animals were suffocated to death with carbon dioxide, the colon from appendix to the region just before the anus was removed from the colon region.” left out\n(§2) 250 μl of RIPA butter including protease inhibitor cocktail was added to 100 mg of the colon tissue of experimental animal, and then, the colon tissue was homogenized. […] While the supernatant was stored at −80° C., the expression amounts of IL-1 beta, IL-6, and TNF-alpha were measured using a 96-well ELISA plate kits (Pierce Biotechology, Inc., Rockford, Ill., USA)."}, "TNF-alpha [2]": {"system": "TNF-alpha", "assay": "TNF-alpha expression in colon tissue (ELISA), TNBS colitis, second experiment", "format": "in vivo, ICR male mice", "conditions": "Table 9, extract-based samples, TNBS-treated mice, 10 mg/kg orally, 3 days", "protocol": "as §1, with “At the next day after completing the sample administration, the experimental animals were suffocated to death with carbon dioxide, the colon from appendix to the region just before the anus was removed from the colon region.” left out\nas §2"}, "[3]": {"system": "model animal with acute colitis induced by TNBS", "assay": "Acute colitis induced by TNBS in mice, weight change and colon appearance (macroscopic score, colon length), third experiment", "format": "in vivo, male mice (C57BL/6)", "conditions": "Table 12, TNBS-treated mice, 3 days", "protocol": "All the mice were bred under the controlled environmental conditions of 50 ±10% of humidity and 20 to 22° C. of temperature, and the lighting was repeatedly on for 12 hours and off for 12 hours. A feed for a standard experiment (Samyang, Korea) was used as a feed, and water was freely taken. For all the experiments, one group was 6 mice. […] Meanwhile, 0.1 ml of normal saline solution was orally administered to the normal group. Since then, from the next day, the sample dissolved in normal saline solution was orally administered in the volume that was decided in advance one time a day for 3 days. At the next day after completing the sample administration, the experimental animals were suffocated to death with carbon dioxide, and the colon from appendix to the region just before the anus was removed from the colon region. At this time, as a medicine sample, the experiments using the butanol-soluble fraction of the Anemarrhena asphodeloides Bunge extract, Mangiferin, and a combined extract were separately performed at a distance of time, respectively, and the effects of the medicine samples on preventing or treating colitis were reasonably analyzed based on the group supplied with normal saline solution instead of a specific medicine in the model animals with acute colitis induced by TNBS for each of the experiments. The sample administration to the model animals with colitis induced by TNBS was stopped, and at the next day, the weights of the experimental animals were measured, and then, the measured weights were compared with the initial weights to calculate the change amounts of weights. The scores about the removed colons were estimated by observing the appearances and the lengths of the colons according to the following criteria (Hollenbach, and the like, the criteria about the level of colon in 2005) as listed in Table 11. At this time, as a positive control group, the group administered with Mesalazine (Sigma) was used. In addition, some of the content in the colon was collected in order to analyze the rumen microorganisms, and then, was stored in a freezer of −80° C. […]"}, "TNF-alpha [4]": {"system": "TNF-alpha", "assay": "TNF-alpha expression in colon tissue (ELISA), TNBS acute colitis, third experiment", "format": "in vivo, male mice (C57BL/6)", "conditions": "Table 12; TNBS-treated mice, 10 mg/kg orally, 3 days", "protocol": "Meanwhile, 0.1 ml of normal saline solution was orally administered to the normal group. Since then, from the next day, the sample dissolved in normal saline solution was orally administered in the volume that was decided in advance one time a day for 3 days. At the next day after completing the sample administration, the experimental animals were suffocated to death with carbon dioxide, and the colon from appendix to the region just before the anus was removed from the colon region. At this time, as a medicine sample, the experiments using the butanol-soluble fraction of the Anemarrhena asphodeloides Bunge extract, Mangiferin, and a combined extract were separately performed at a distance of time, respectively, and the effects of the medicine samples on preventing or treating colitis were reasonably analyzed based on the group supplied with normal saline solution instead of a specific medicine in the model animals with acute colitis induced by TNBS for each of the experiments. […] While the supernatant was stored at −80° C., the expression amounts of IL-1 beta, IL-6, and TNF-alpha, which were proinflammatory cytokines, and the expression amount of IL-10, which was anti-inflammatory cytokine, were measured using a 96-well ELISA plate kits (Pierce Biotechology, Inc., Rockford, Ill., USA)."}}, "data": [{"compound": "Nc1ccc(O)c(C(=O)O)c1", "note": "[mesalazine, Mesalazine]", "values": [{"measurement": "TNF-alpha conc.", "setting": "TNF-alpha [1]", "value": "26.1 ± 8.8", "unit": "pg/mg"}, {"measurement": "IL-1 beta conc.", "setting": "IL-1 beta", "value": "16.30 ± 3.38", "unit": "pg/mg"}, {"measurement": "TNF-alpha conc.", "setting": "TNF-alpha [2]", "value": "23.79 ± 2.82", "unit": "pg/mg"}, {"measurement": "Colon length (Percentage to group supplied with normal saline solution after treating TNBS)", "setting": "[3]; 10 mg/kg orally", "value": 155, "unit": "%"}, {"measurement": "Macroscopic score (Percentage to group supplied with normal saline solution after treating TNBS)", "setting": "[3]; 10 mg/kg orally", "value": 61.1, "unit": "%"}, {"measurement": "Body weight (Percentage to group supplied with normal saline solution after treating TNBS)", "setting": "[3]; one time dosage amount 10 mg/kg orally", "value": 113.5, "unit": "%"}, {"measurement": "TNF-α (Percentage to group supplied with normal saline solution after treating TNBS)", "setting": "TNF-alpha [4]", "value": 36.8, "unit": "%"}]}]}
